Tested on: human breast cancer ZR-75-1 cell xenograft tumor
Experiment: Anti-tumor effect in ER+KAT6high breast cancer cell xenograft tumor model (Test Example 6)
Format: in vivo, Balb/c nude mice
Conditions: for T/C / TGI / mean tumor volume: day 34; for efficacy compared to PF-8144: 0.1 mg/kg and 0.3 mg/kg PO QD; for body weight changes compared to the PF-8144 group: all doses (0.1, 0.3 mg/kg)
Procedure: Test Example 6: Anti-Tumor Effects of Test Compounds in ER^+KAT6^high Breast Cancer Cell-Xenograft Tumor Model
Assay method: ZR-75-1 cells were subcutaneously inoculated into the right back of each mouse to evaluate the efficacy of the compounds in the subcutaneous xenograft tumor model of ZR-75-1 cells.
• 1. Cell culture: ZR-75-1 cells were cultured as a monolayer in vitro under the following culture conditions: an RPMI 1640 medium supplemented with 10% fetal bovine serum and 1% Anti-anti (Antibiotic-Antimycotic), incubated in an incubator at 37° C. with 5% CO2. The cells were digested with trypsin-EDTA twice a week for passaging as per conventional practice. When the cell saturation reached 80%-90% and the quantity met the requirement, the cells were harvested, counted, and inoculated. • 2. Animals: Balb/c nude mice, female, 6-8 weeks old, weighing 18-22 g. A total of 115 mice were required (72 mice were enrolled). They were provided by Vital River or other qualified suppliers. • 3. Tumor inoculation: Two days before tumor inoculation, 17-beta estradiol tablets (0.18 mg) were subcutaneously administered, and 10 million ZR-75-1 tumor cells+matrigel (total […]) were subcutaneously inoculated into the right back of each mouse. When the mean tumor volume reached about 131 mm^3, the mice were grouped for administration. • 4. Experimental administration: The compounds were dissolved in 5% DMSO+5% Tween 80+90% Saline or 10% DMSO+10% Solutol+80% (10% HPP-CD in saline), and administered intragastrically (PO) daily for five weeks. • 5. Experimental indicators: The experimental indicators were to investigate whether the tumor growth was inhibited or delayed or the tumor was cured. Tumor diameters were measured twice weekly using a vernier caliper. The tumor volume was calculated using the following formula: V=0.5a×b^2, where a and b represent the long diameter and short diameter of the tumor, respectively. • 6. The anti-tumor efficacy of the compounds was evaluated by TGI (%) or relative tumor proliferation rate T/C (%). TGI (%) refers to the tumor growth inhibition rate. Calculation of TGI (%):TGI (%)=[(1−(mean tumor volume at the end of administration in a treatment group—mean tumor volume at the start of administration in the treatment group))/(mean tumor volume at the end of treatment in the solvent control group—mean tumor volume at the start of treatment in the solvent control group)]×100%. The calculation formula for the relative tumor proliferation rate T/C (%) was as follows: T/C %=TRTV/CRTV×100% (TRTV:RTV of the treatment group; CRTV:RTV of the negative control group). The relative tumor volume (RTV) was calculated based on the tumor measurement results using the following formula: RTV=Vt/V0, where V0 represents the mean tumor volume measured at the time of grouping for administration (i.e., PG-DO), and Vt represents the mean tumor volume at a certain measurement. TRTV and CRTV were derived from data measured on the same day.
The mean and standard error of mean (SEM) of tumor volume at each time point for each group were included. The differences in tumor volume and tumor weight among the groups were statistically analyzed. For comparisons among three or more groups, one-way ANOVA was used for analysis. […] The analysis was performed using SPSS 17.0, and p<0.05 was considered to indicate a significant difference.
For comparisons between different doses of the same drug or different drugs at the same dose, two-way ANOVA was used for analysis, and the Bonferroni method was applied for testing. The analysis was performed using GraphPad Prism 9.0, and p<0.05 was considered to indicate a significant difference. On day 34 after the start of administration, the data between different doses of the same drug or different drugs at the same dose were analyzed using one-way ANOVA. […] The analysis was performed using SPSS 17.0, and p<0.05 was considered to indicate a significant difference.

Row | SMILES | T/C (0.1 mg/kg PO QD) [%] | TGI (0.1 mg/kg PO QD) [%] | mean tumor volume (0.1 mg/kg PO QD) [mm^3] | efficacy compared to PF-8144 | T/C (0.3 mg/kg PO QD) [%] | TGI (0.3 mg/kg PO QD) [%] | mean tumor volume (0.3 mg/kg PO QD) [mm^3] | body weight changes compared to the PF-8144 group
1 | COc1ccc2c(c1S(=O)(=O)Nc1noc3cc(Cn4cccn4)c(F)c(OC)c13)OCCC2=O [Compound 42, N-(6-((1H-Pyrazol-1-yl)methyl)-5-fluoro-4-methoxybenzo[d]isoxazol-3-yl)-7-methoxy-4-oxochromane-8-sulfonamide] | 3.9 | 108.67 | 44 | significantly superior in efficacy to PF-8144 | 2.2 | 110.58 | 25 | no statistically significant difference
2 | COc1ccc2c(c1S(=O)(=O)Nc1noc3cc(Cn4cccn4)c(F)c(OC)c13)OCCCO2 [Compound 114, N-(6-((1H-Pyrazol-1-yl)methyl)-5-fluoro-4-methoxybenzo[d]isoxazol-3-yl)-7-methoxy-3,4-dihydro-2H-benzo[b][1,4]dioxepine-6-sulfonamide] | 35.8 | 72.61 | 403 |  | 10.5 | 101.21 | 119 | no statistically significant difference
3 | COc1ccc2c(c1S(=O)(=O)Nc1noc3cc(Cn4cccn4)c(F)c(OC)c13)OCCCN2C [Compound 115, N-(6-((1H-Pyrazol-1-yl)methyl)-5-fluoro-4-methoxybenzo[d]isoxazol-3-yl)-8-methoxy-5-methyl-2,3,4,5-tetrahydrobenzo[b][1,4]oxazepine-9-sulfonamide] | 8.6 | 103.38 | 97 | significantly superior in efficacy to PF-8144 | 2.4 | 110.47 | 27 | no statistically significant difference
4 | COc1ccccc1S(=O)(=O)Nc1noc2cc(Cn3cccn3)cc(OC)c12 [PF-8144, reference compound] | 36.2 | 72.2 | 407 |  | 19.5 | 91.07 | 220 | 

Reference: patent publication US20260174778A1, “SULFONAMIDE COMPOUND, AND PREPARATION METHOD THEREFOR AND USE THEREOF” (SHANGHAI HENLIUS BIOTECH, INC., priority 2023, published 2026)
